Assays:
Test in all cases: Carbonic Anhydrase I, II, IV and XII Assay
Details in all cases: pH 7.5; 25 °C
[1] = biological target: Carbonic anhydrase 1 (Homo sapiens, UniProt P00915)
Method: (§1) An Applied Photophysics stopped-flow instrument has been used for assaying the CA catalysed CO2 hydration activity [Khalifah et al., J. Biol. Chem., 246:2561-2573]. Phenol red (at a concentration of 0.2 mM) has been used as indicator, working at the absorbance maximum of 557 nm, with 10-20 mM Hepes (pH 7.5) as buffer, and 20 mM Na2SO4 (for maintaining constant the ionic strength), following the initial rates of the CA-catalyzed CO2 hydration reaction for a period of 10-100 s. The CO2 concentrations ranged from 1.7 to 17 mM for the determination of the kinetic parameters and inhibition constants. For each inhibitor at least six traces of the initial 5-10% of the reaction have been used for determining the initial velocity. The uncatalyzed rates were determined in the same manner and subtracted from the total observed rates. Stock solutions of inhibitor (10 mM) were prepared in distilled-deionised water and dilutions up to 0.01 nM were done thereafter with distilled-deionised water. Inhibitor and enzyme solutions were preincubated together for 15 min at room temperature prior to assay, in order to allow for the formation of the E-I complex.

[2] = biological target: Carbonic anhydrase 2 (Homo sapiens, UniProt P00918)
Method: as §1

[3] = biological target: Carbonic anhydrase 12 (Homo sapiens, UniProt O43570)
Chain of Carbonic anhydrase 12 (O43570 whole entry): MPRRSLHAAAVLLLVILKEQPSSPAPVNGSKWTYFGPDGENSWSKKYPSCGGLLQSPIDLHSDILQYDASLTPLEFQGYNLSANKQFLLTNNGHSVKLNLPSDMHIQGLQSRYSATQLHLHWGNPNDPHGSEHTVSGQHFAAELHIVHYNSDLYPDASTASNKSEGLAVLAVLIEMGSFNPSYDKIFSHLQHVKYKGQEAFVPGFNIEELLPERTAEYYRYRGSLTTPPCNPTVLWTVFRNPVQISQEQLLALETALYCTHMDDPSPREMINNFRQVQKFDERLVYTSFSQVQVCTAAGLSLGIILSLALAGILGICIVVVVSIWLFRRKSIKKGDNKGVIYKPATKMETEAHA
Method: as §1

[4] = biological target: Carbonic anhydrase 4 (Homo sapiens, UniProt P22748)
Chain of Carbonic anhydrase 4 (P22748 whole entry): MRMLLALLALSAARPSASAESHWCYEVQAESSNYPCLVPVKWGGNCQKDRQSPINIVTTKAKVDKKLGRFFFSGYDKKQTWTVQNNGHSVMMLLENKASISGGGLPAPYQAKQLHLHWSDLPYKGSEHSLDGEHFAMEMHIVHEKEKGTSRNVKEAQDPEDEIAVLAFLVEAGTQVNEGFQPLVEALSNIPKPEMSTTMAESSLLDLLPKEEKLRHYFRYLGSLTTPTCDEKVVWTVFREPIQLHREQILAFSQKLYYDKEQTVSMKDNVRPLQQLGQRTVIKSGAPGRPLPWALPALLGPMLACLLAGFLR
Method: as §1

Chain of Carbonic anhydrase 1 (P00915 whole entry): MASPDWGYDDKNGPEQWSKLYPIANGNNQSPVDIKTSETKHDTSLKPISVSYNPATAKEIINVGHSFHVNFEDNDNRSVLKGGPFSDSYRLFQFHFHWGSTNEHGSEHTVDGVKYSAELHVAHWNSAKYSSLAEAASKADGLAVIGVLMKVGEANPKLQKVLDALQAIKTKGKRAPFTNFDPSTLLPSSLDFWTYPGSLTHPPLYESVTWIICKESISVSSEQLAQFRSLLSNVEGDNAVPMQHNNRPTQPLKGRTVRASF

| SMILES | IC50 [1] | IC50 [2] | IC50 [3] | IC50 [4] |
| --- | --- | --- | --- | --- |
| NS(=O)(=O)c1ccc(C(=O)NCCCN2CCOCC2)cc1 [4-Sulfamoyl-N-(3-morpholinopropyl)benzamide (I-1)] | 0.231 µM | 0.216 µM | 0.645 µM | 0.611 µM |
| NS(=O)(=O)c1ccc(S(=O)(=O)NCCCN2CCOCC2)cc1 [N-(3-morpholinopropyl)benzene-1,4-disulfonamide (I-2)] | 0.0577 µM | 0.0658 µM | 0.517 µM | 0.499 µM |
| CCN(CC)CCOc1ccc(CNS(=O)(=O)c2ccc(S(N)(=O)=O)cc2)cc1 [N-(4-diethylaminoethoxybenzyl)benzene-1,4-bis-sulfonamide (I-3)] | 0.0598 µM | 0.0811 µM | 0.737 µM | 0.508 µM |
